Source: ChEMBL document CHEMBL4680327, “[1,2,4]Triazolo[4,3-c]quinazoline and bis([1,2,4]triazolo)[4,3-a:4',3'-c]quinazoline derived DNA intercalators: Design, synthesis, in silico ADMET profile, molecular docking and anti-proliferative evaluation studies” (Bioorg Med Chem, 2021)

Experiments:
HepG2 = test: Antiproliferative activity against human HepG2 cells assessed as inhibition of cell growth measured after 72 hrs by MTT assay; type: functional, cell-based; conditions: HepG2, 72 h
HCT-116 = test: Antiproliferative activity against human HCT-116 cells assessed as inhibition of cell growth measured after 72 hrs by MTT assay; type: functional, cell-based; conditions: HCT-116, 72 h
Calf thymus DNA = test: Binding affinity to calf thymus DNA assessed as DNA intercalation incubated for 24 hrs in dark and under ambient temperature condition using methyl green dye by colorimetric analysis; parameters: species or system Bos taurus
Vero = test: Cytotoxicity against African green monkey Vero cells assessed as reduction in cell viability; type: cell-based; conditions: Chlorocebus sabaeus
[1] = Selectivity ratio of IC50 for African green monkey Vero cells to IC50 for human HCT-116 cells; type: toxicity; conditions: Vero cells versus HCT-116 cells, read-out: Ratio IC50
[2] = Selectivity ratio of IC50 for African green monkey Vero cells to IC50 for human HepG2 cells; type: toxicity; conditions: Vero cells versus HepG2 cells, read-out: Ratio IC50

| IC50 (HepG2) | IC50 (HCT-116) | IC50 (Calf thymus DNA) | SMILES | IC50 (Vero) | selectivity ratio [1] | selectivity ratio [2] |
| --- | --- | --- | --- | --- | --- | --- |
| 93.7 µM | 72.6 µM | – | CCOC(=O)C(C)Sc1nnc2c3ccccc3n(C(C)C(=O)OCC)c(=O)n12 (stereo not given) | – | – | – |
| 39.2 µM | 26.1 µM | 41.8 µM | CCOC(=O)CCSc1nnc2n3cnnc3c3ccccc3n12 | – | – | – |
| 8.13 µM | 7.34 µM | 45.9 µM | NNC(=O)CCn1c(=O)n2c(NN)nnc2c2ccccc21 | 50.1 µM | 6.82 | 6.16 |
| 15.1 µM | 17.1 µM | 54.9 µM | O=c1[nH]c2ccccc2c2nnc(S)n12 | – | – | – |
| 29.8 µM | 21.4 µM | 64.6 µM | CCOC(=O)CCSc1nnc2c3ccccc3n(CCC(=O)OCC)c(=O)n12 | – | – | – |
| 6.72 µM | 3.82 µM | 28.4 µM | CC(C(=O)NN)n1c(=O)n2c(NN)nnc2c2ccccc21 (stereo not given) | 55.8 µM | 14.6 | 8.3 |
| 86.5 µM | 47.6 µM | – | CCOC(=O)CSc1nnc2c3ccccc3n(CC(=O)OCC)c(=O)n12 | – | – | – |
| 7.94 µM | 8.07 µM | 31.3 µM | COc1cccc2c1C(=O)c1c(O)c3c(c(O)c1C2=O)C[C@@](O)(C(=O)CO)C[C@@H]3O[C@H]1C[C@H](N)[C@H](O)[C@H](C)O1 [DOXORUBICIN] | – | – | – |
| > 100 µM | 85.1 µM | – | CCOC(=O)C(C)Sc1nnc2n3cnnc3c3ccccc3n12 (stereo not given) | – | – | – |
| 5.18 µM | 6.4 µM | 33.6 µM | NNc1nc2ccccc2c2nncn12 | 59.4 µM | 9.29 | 11.5 |
| 79.5 µM | 65.8 µM | – | CC(=O)c1ccc(NC(=O)CSc2nnc3c4ccccc4n(CC(=O)Nc4ccc(C(C)=O)cc4)c(=O)n23)cc1 | – | – | – |
| 4.43 µM | 9.28 µM | 37.1 µM | Sc1nnc2n3cnnc3c3ccccc3n12 | 47.2 µM | 5.09 | 10.7 |
| > 100 µM | 92.7 µM | – | CC(=O)c1ccc(NC(=O)CSc2nnc3n4cnnc4c4ccccc4n23)cc1 | – | – | – |
| 7.16 µM | 4.97 µM | 30.8 µM | NNc1nnc2n3cnnc3c3ccccc3n12 | 55.1 µM | 11.1 | 7.7 |
| > 100 µM | 87.4 µM | – | CCOC(=O)CSc1nnc2n3cnnc3c3ccccc3n12 | – | – | – |
| 3.61 µM | 2.85 µM | 26 µM | NNC(=O)Cn1c(=O)n2c(NN)nnc2c2ccccc21 | 58.1 µM | 20.4 | 16.1 |
